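Five concentrations, 48 hours, 96-well plates. Here, GI50 denotes the concentration required for 50% inhibition of growth.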 The source made the active and inactive calls. No stated cut-off is given here; in the data, active = GI50 up to about 1.1 µM and inactive = higher.
Key:
Test in all cases: growth of human tumour cells (NCI), 48 h
BT-549 = test system: BT-549
DMS-273 = test system: DMS-273
XF498 = test system: XF498
DMS-114 = test system: DMS-114
HOP-18 = test system: HOP-18
DLD-1 = test system: DLD-1
M19-MEL = test system: M19-MEL
KM-20L2 = test system: KM-20L2

## O=C1CSC(c2cccc(Cl)c2)N1c1ccc(-c2ccc(-n3c(-c4ccccc4)nc4ccccc4c3=O)cc2)cc1 (configuration not stated)
BT-549
  GI50: 28.5 µM (inactive)

## O=C(CCc1ccc(O)c(O)c1)NCCc1ccccc1
BT-549
  GI50: 31.8 µM (inactive)

## N#Cc1cc2c(cc1C#N)/C(=N\c1cccc(N)n1)N/C2=N\c1cccc(N)n1
BT-549
  GI50: 32.2 µM (inactive)

## N=C1OC(CN2CCN(c3ccccc3)CC2)CN1C(=S)Nc1ccccc1 (configuration not stated)
BT-549
  GI50: 62.2 µM (inactive)

## COc1ccc2[nH]c(C(=O)N3CC(CCl)c4ccc(N)cc43)cc2c1 (configuration not stated)
BT-549
  GI50: 0.412 µM (active)

## COc1cc(OC)cc(-n2c(N)c(-c3nc4ccccc4n3C)c3ccc([N+](=O)[O-])cc3c2=O)c1
BT-549
  GI50: > 100 µM (inactive)

## CCN(CC)c1ccc(/C=C/C=C2C(=O)NC(=S)NC2=O)cc1
BT-549
  GI50: 13.1 µM (inactive)

## Cc1cccc2c(N)c3cccc(C(=O)NCC[N+](C)(C)Cc4sccc4[N+](=O)[O-])c3nc12
BT-549
  GI50: 22 µM (inactive)

## CC1C[C@]2(C[C@@H](C)C(=O)O2)O[C@@H]2CC3(C)[C@@H]4CCC5C(C)(C)OC(=O)C[C@H]6OO[C@]4(CC[C@]3(C)C12)CC56O (some centres not stated)
DMS-273
  GI50: > 100 µM (inactive)
XF498
  GI50: > 100 µM (inactive)
DMS-114
  GI50: > 100 µM (inactive)
HOP-18
  GI50: > 100 µM (inactive)
DLD-1
  GI50: > 100 µM (inactive)

## CC(C1=CC=C2[C@@H]3CCC4CC(N(C)C)CC[C@]4(C)C3CC[C@]12C)N(C)C=O (some centres not stated)
M19-MEL
  GI50: > 100 µM (inactive)
DMS-273
  GI50: > 100 µM (inactive)
DMS-114
  GI50: 91.6 µM (inactive)
HOP-18
  GI50: > 100 µM (inactive)
DLD-1
  GI50: > 100 µM (inactive)

## Cc1nc(N)c(N2CCN(S(N)(=O)=O)CC2)c(O)n1
BT-549
  GI50: > 100 µM (inactive)

## C/C(=N\N=C1/C(=O)OC(c2ccccc2)=C1C(=O)c1ccccc1)c1ccc([N+](=O)[O-])cc1
BT-549
  GI50: 25.9 µM (inactive)

## O=C(/C=C(\O)c1cc(-c2ccccc2)n(-c2ccccc2)n1)c1ccccc1
BT-549
  GI50: 2.3 µM (inactive)

## N#C/C(C(=O)Nc1ccccc1)=C(/N)N1CCCCC1
BT-549
  GI50: > 100 µM (inactive)

## NC(CCc1ccccc1)(C(=O)O)c1ccccc1 (configuration not stated)
BT-549
  GI50: > 100 µM (inactive)

## CC(=O)n1nc(-c2ccccc2)n(/N=C/c2ccc([N+](=O)[O-])o2)c1=O
BT-549
  GI50: 8.32 µM (inactive)

## C=C(CCCCC)CN1CCCC1C(C)=O (configuration not stated)
M19-MEL
  GI50: 28.9 µM (inactive)
DMS-273
  GI50: 21.5 µM (inactive)
KM-20L2
  GI50: 29.4 µM (inactive)
XF498
  GI50: 15 µM (inactive)
DMS-114
  GI50: 15 µM (inactive)
HOP-18
  GI50: 28.9 µM (inactive)
DLD-1
  GI50: 24.7 µM (inactive)

## CCCCCC(=O)OC[n+]1cccc(-c2c(COC(=O)NC(C)C)c(COC(=O)NC(C)C)c3n2CCC3)c1
BT-549
  GI50: 38.1 µM (inactive)

## COc1ccc(NC(=O)/C(=N/O)C(C)=O)cc1
DMS-273
  GI50: > 100 µM (inactive)
KM-20L2
  GI50: 87.9 µM (inactive)
DMS-114
  GI50: 36.7 µM (inactive)
HOP-18
  GI50: > 100 µM (inactive)
DLD-1
  GI50: 42.5 µM (inactive)

## COC(=O)C1=C(C(=O)OC)C(N(C)C)C(C(=O)OC)=C(C(=O)OC)S1
BT-549
  GI50: > 100 µM (inactive)

## CCCCCCCCC[n+]1cccc(C2C(C(=O)OCC)=C(C)NC(C)=C2C(=O)OCC)c1
BT-549
  GI50: 1.71 µM (inactive)

## Cc1cc(C)nc(SCCc2cccc[n+]2C)n1
BT-549
  GI50: > 100 µM (inactive)

## CON(C)C(=O)CNC(=O)OCC1c2ccccc2-c2ccccc21
BT-549
  GI50: > 100 µM (inactive)

## CCOC(=O)C(NC(=O)Nc1ccc(Cl)cc1)(OC)C(F)(F)F (configuration not stated)
BT-549
  GI50: > 100 µM (inactive)

## COc1ccc(C)cc1NC(=S)N/N=C/c1ccco1
BT-549
  GI50: 53.8 µM (inactive)

## COC(O)C(=O)c1ccc2c(c1)CC1(C2)Cc2cc3c(cc2C1=O)CCC3 (configuration not stated)
BT-549
  GI50: 17.4 µM (inactive)

## CCOC(=O)C(Cc1cc(OC)c(CC(C(=O)OCC)C(=O)OCC)cc1OC)C(=O)OCC
M19-MEL
  GI50: > 100 µM (inactive)
DMS-273
  GI50: > 100 µM (inactive)
BT-549
  GI50: > 100 µM (inactive)
KM-20L2
  GI50: > 100 µM (inactive)
XF498
  GI50: 21.6 µM (inactive)
DMS-114
  GI50: > 100 µM (inactive)
DLD-1
  GI50: > 100 µM (inactive)

## CSC(SC)(C(=O)O)c1cc(-c2c(Cl)cccc2Cl)no1
BT-549
  GI50: 28.8 µM (inactive)

## COc1ccc(O)cc1 [MEQUINOL]
M19-MEL
  GI50: 95.3 µM (inactive)
KM-20L2
  GI50: 28.6 µM (inactive)
XF498
  GI50: > 100 µM (inactive)
DMS-114
  GI50: 48.4 µM (inactive)
DLD-1
  GI50: > 100 µM (inactive)

## COc1nc2ncc([C@@H](OC(C)=O)[C@@H](COC(C)=O)OC(C)=O)nc2c(=O)[nH]1
BT-549
  GI50: > 100 µM (inactive)

## COC(=O)c1cc(C)n(CN(Cn2nc(C(=O)OC)cc2C)c2ccccc2)n1
BT-549
  GI50: 31 µM (inactive)

## Cc1ccc(C2=Nc3c(N)nc(N)nc3NC(c3ccccc3)C2)cc1 (configuration not stated)
BT-549
  GI50: 9.46 µM (inactive)

## Cc1cc(S(=O)(=O)n2ccnc2Oc2ccccc2)c(SSc2cc(Cl)c(C)cc2S(=O)(=O)n2ccnc2Oc2ccccc2)cc1Cl
BT-549
  GI50: > 100 µM (inactive)

## CCOC(=O)/C=C/c1cccc(F)c1
BT-549
  GI50: > 100 µM (inactive)

## O=C(O)CCCCCO
M19-MEL
  GI50: > 100 µM (inactive)
DMS-273
  GI50: > 100 µM (inactive)
KM-20L2
  GI50: > 100 µM (inactive)
XF498
  GI50: > 100 µM (inactive)
DMS-114
  GI50: > 100 µM (inactive)
HOP-18
  GI50: > 100 µM (inactive)
DLD-1
  GI50: > 100 µM (inactive)

## COc1cccc(C2CC23C(=O)NC(=O)NC3=O)c1 (configuration not stated)
M19-MEL
  GI50: > 100 µM (inactive)
DMS-273
  GI50: > 100 µM (inactive)
KM-20L2
  GI50: > 100 µM (inactive)
XF498
  GI50: > 100 µM (inactive)
DMS-114
  GI50: > 100 µM (inactive)

## C=CCC1(O)c2ccccc2C(=O)c2c(O)ccc(O)c21 (configuration not stated)
BT-549
  GI50: 6.03 µM (inactive)

## CCC(=O)NCCc1c[nH]c2ccc(OC)cc12
BT-549
  GI50: > 100 µM (inactive)

## Cc1nc(C)c(N2CCN(C#N)CC2)c(O)n1
BT-549
  GI50: > 100 µM (inactive)

## CCNC12CCC(C1)C(C)(C)C2=O (configuration not stated)
BT-549
  GI50: > 100 µM (inactive)

## Cn1c(=O)c2c(nc3n(Cc4ccccc4)c(=O)c(Br)cn23)n(C)c1=O
BT-549
  GI50: > 100 µM (inactive)

## CC(=O)C1C(=O)C(=O)N(c2ccccc2C(C)C)C1=O (configuration not stated)
M19-MEL
  GI50: > 100 µM (inactive)
KM-20L2
  GI50: > 100 µM (inactive)
XF498
  GI50: > 100 µM (inactive)
HOP-18
  GI50: > 100 µM (inactive)

## Nc1nc2cc(CNc3ccc(C(=O)O)cc3)ccc2nc1-c1ccccc1
BT-549
  GI50: > 100 µM (inactive)

## COc1ccc(-n2cnn3c(=O)c4cn[nH]c4nc23)cc1
BT-549
  GI50: > 10 µM (inactive)

## COc1ccc(/C=C2\C(=O)N(C(=O)Cc3ccccc3)N=C2C)cc1OC
M19-MEL
  GI50: > 100 µM (inactive)
DMS-273
  GI50: > 100 µM (inactive)
XF498
  GI50: > 100 µM (inactive)
DMS-114
  GI50: > 100 µM (inactive)
HOP-18
  GI50: > 100 µM (inactive)

## C=C1C(=O)C23CC1C[C@H](OC(C)=O)[C@H]2C1(C)C(OC(C)=O)C[C@H](O)C(C)(C)[C@H]1C(=O)[C@@H]3OC(C)=O (some centres not stated)
BT-549
  GI50: 2.84 µM (inactive)

## C=C1C(=O)OC2CC(C)C(C(O)CC(C)O)=CCC12 (configuration not stated)
BT-549
  GI50: 13.4 µM (inactive)

## NNC(=S)N/N=C(/C(=O)Nc1ccc([N+](=O)[O-])cc1)c1nc2ccc([N+](=O)[O-])cc2nc1O
M19-MEL
  GI50: > 100 µM (inactive)
XF498
  GI50: > 100 µM (inactive)
DMS-114
  GI50: 77.6 µM (inactive)
HOP-18
  GI50: > 100 µM (inactive)
DLD-1
  GI50: > 100 µM (inactive)

## Cc1c(NC(=O)CSC(=S)N(C)C)c(=O)n(-c2ccccc2)n1C
BT-549
  GI50: > 100 µM (inactive)

## Cc1cccc2c1Sc1ccccc1C2NC(=O)CCN(C)C (configuration not stated)
M19-MEL
  GI50: > 100 µM (inactive)
DMS-273
  GI50: > 100 µM (inactive)
KM-20L2
  GI50: > 100 µM (inactive)
DMS-114
  GI50: > 100 µM (inactive)
DLD-1
  GI50: > 100 µM (inactive)

## Cc1c(O)nc(-n2[nH]c3c(c2=O)CCCC3)[nH]c1=O
BT-549
  GI50: > 100 µM (inactive)

## COC(=O)c1ccc2c(c1)CCN2C(=O)c1cc2c(cc1Br)OCO2
BT-549
  GI50: 7.18 µM (inactive)

## COc1ccc2c(c1)CCc1cc(OC)ccc1/[N+]([O-])=[N+]\2[O-]
BT-549
  GI50: 14.8 µM (inactive)

## CCOC(=O)/C(=C/c1cccc(Cl)c1)N(CC)CC
M19-MEL
  GI50: 88.7 µM (inactive)
XF498
  GI50: 46.3 µM (inactive)
DMS-114
  GI50: 31 µM (inactive)
HOP-18
  GI50: 24.2 µM (inactive)
DLD-1
  GI50: 48.9 µM (inactive)

## Brc1ccc(/C(N=N/C(=N\Sc2ccccc2)c2ccc(Br)cc2)=N/Sc2ccccc2)cc1
BT-549
  GI50: > 100 µM (inactive)

From ChEMBL document CHEMBL1201862, “PubChem BioAssay data set” (2004)
